Reference: patent US10111901B2, “Beta-glucan in combination with anti-cancer agents affecting the tumor microenvironment” (Biothera, Inc., priority 2014, dated 2018)

Columns and labels:
[1] = tested on: MC38 tumor cells; assay: MC38 tumor model, tumor-free survival; assay type: in vivo; conditions: C57BL/6 mice, MC38 s.c.; biweekly from day 3; 1.2 mg/mouse IMPRIME PGG, 100 μs/mouse anti-PDL-1; survivors/group size
Procedure: In another animal study, mice were injected with MC38 tumor cells and randomized into treatment groups. 8 to 12 week-old female C57BL/6 mice were injected with 1×10^6 MC38 tumor cells, a colon adenocarcinoma that expresses low levels of PD-L1, in a volume of 0.1 ml injected subcutaneously in the flank. Mice were dosed biweekly starting on day 3 with the following agents: • 0.2 ml/mouse vehicle • 1.2 mg/mouse IMPRIME PGG (Biothera, Inc.) • 100 μs/mouse anti-PDL-1 Clone: 10F.9G2 BioXcell Catalog#: BE0101
Blood samples were collected 1 hour prior to dose 1, 2 hours after dose 3, the endpoint and 2 hours after the last dose (day 20). Treatment groups included vehicle (PBS control), IMPRIME PGG alone, anti-PD-L1 antibody alone and anti-PD-L1+IMPRIME PGG. Tumors were randomized to treatment groups once sizes reached a group mean of 150 mm^3.

[2] = tested on: CD4 T cells; assay: Mac-CD4 T co-culture surface marker modulation on T cells; assay type: cell-based, human
Procedure: For evaluation of Mac-CD4 T cell surface marker modulation, M2 macrophages were co-cultured with T cells as described above and cells were harvested on day 8, day 9 and day 10 to perform surface receptor staining on both M2 macrophages and T cells.
Changes in surface marker expression on both macrophages and CD3 & CD28-stimulated T cells were also measured. Vehicle- and β-glucan-treated M2 macrophages and CD T cells from the co-cultures were evaluated by flow cytometry for the modulation of co-stimulatory or co-inhibitory molecules. FIG. 8C and Table 9 are representative results from 2 different experiments.

[3] = tested on: CD4 T cells; assay: MCM-CD4 T cell proliferation and surface marker study; assay type: cell-based, human
Procedure: For MCM-CD4 T cell proliferation study, CD3 & CD28-stimulated, CFSE-labeled CD4 T cells were cultured with 50% MCM. T cell proliferation was measured on day 11 as described above. Culture supernatants of the MCM-CD4 T cell co-culture were collected for subsequent cytokine analysis. MCM-CD4 T cell surface marker evaluation was performed as described above.
To determine whether soluble factors secreted from β-glucan-treated M2 macrophages are required, measurements were carried out of CD4 T cell proliferation co-cultured with β-glucan-treated M2 macrophages MCM (50% of volume) and surface activation marker modulation on T cells incubated with the MCM were observed. FIG. 9 is representative of 2 different experiments. […] In addition, the CD4 T cells cultured in vehicle- and β-glucan-treated M2 macrophage MCM were evaluated for modulation of co-stimulatory or co-inhibitory molecules (CD80, CD28, CTLA-4, 4-1BB and PD-1).
To test this, M2 macrophages were prepared as described above with a few modifications. The whole blood of a low binder was spun down to remove the plasma and then the cells were reconstituted with serum obtained from a high binder. The reconstituted blood was treated with vehicle or β-glucan (25 μg/mL) for 2 hours at 37° C. The monocytes were evaluated for binding by using anti-β-glucan specific monoclonal antibody and subsequent flow cytometry.

[4] = tested on: CD33+ MDSC; assay: MDSC in peripheral blood of a case study subject treated with IMPRIME PGG; assay type: in vivo, human; conditions: post-infusion, cycle 8, day 1; within hours
Source text: Blood was drawn at various times from a case study subject undergoing treatment with IMPRIME PGG and analyzed for the presence of MDSC. The first blood draw was done pre-infusion, cycle 8, day 1. […] A second blood draw was done post-infusion, cycle 8, day 1. […] The last blood sample was drawn pre-infusion, cycle 8, day 15. The CD33^+ MDSC are again present in the peripheral blood.

[5] = tested on: Tregs (CD4+CD25+); assay: Treg suppression assay; assay type: cell-based, human
Procedure: Since these PBMC cultures contain Tregs, the suppressive ability of Tregs seem to be altered in the presence of soluble β-glucan and studies were carried out to determine if β-glucan affected Treg suppression. Plasma from β-glucan-treated or vehicle-treated whole blood (described above) was added to 25,000 isolated CFSE-labeled autologous CD4 T cells (CD4^+CD25^−) along with increasing numbers of isolated autologous Tregs (CD4^+CD25^+) resulting in wells with increasing ratios. Cells were then stimulated with 50,000 T cell activating CD3/28 beads for 3 days. Proliferation was subsequently measured by CFSE dilution and quantified by Division Index, which was used to calculate the % suppression of Tregs in the co-culture. % suppression=100−(Division Index of Treg well/Division Index of 1:0 well)[…].
The Treg suppression assay was conducted as described above, and after 3 days of co-culture, supernatants were analyzed for IFN-gamma production.

[6] = T cells co-cultured with β-glucan-treated M2 macrophages relative to vehicle-treated

Substance: β(1,6)-[poly-(1,3)-D-glucopyranosyl]-poly-β(1,3)-D-glucopyranose [β-glucan]
- Tumor-free Survivors (day 29) [1]: 2/18
- Change in MFI on T cells: 4-1BB [2, 6]: No change
- Change in MFI on T cells: CD28 [2, 6]: No change
- Change in MFI on T cells: CD40L [2, 6]: No change
- Change in MFI on T cells: CTLA-4 [2, 6]: No change
- Change in MFI on T cells: PD1 (CD279) ([2]; T cells co-cultured with β-glucan-treated M2 macrophages relative to vehicle-treated (day 9)): Increase
- T cell markers (CD80, CD28, CTLA-4, 4-1BB and PD-1) ([3]; CD4 T cells cultured in β-glucan-treated M2 macrophage MCM (data not shown)): no change
- CD4 T cell proliferation ([3]; MCM of M2 macrophages of a low binder crossed-over with high binder's serum, 25 μg/mL): significantly higher ability to enhance
- CD4 T cell proliferation ([3]; β-glucan-treated M2 macrophage MCM (50% of volume) vs vehicle-treated MCM): significantly higher ability to enhance
- CD33+ MDSC in peripheral blood [4]: transiently disappear
- IFN-gamma production ([5]; Treg suppression assay, 3 days, 8:1 T cell to Treg ratio): enhanced IFN-gamma production
- suppressive capacity of Tregs ([5]; plasma from β-glucan-treated whole blood vs vehicle-treated): significant decreases
